Measured values as given in US20260137706A1, “METHODS OF TREATING INFLAMMATORY DISEASES” (INTERLINE THERAPEUTICS, INC., priority 2023, published 2026).

Columns and labels:
[1] = target: T1, GST-RIPK2 fusion protein (human RIPK2, amino acids 1-310) (Homo sapiens, UniProt O43353); assay: RIPK2 binding competition assay (TR-FRET, Tracer 199 displacement); conditions: 10 nM Tracer 199, 1 nM GST-RIPK2, read-out: RIPK2 IC50
T1 construct: made in house; host or cells: baculovirus infected Sf9 cells
Method in brief: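 IC50 derived from the TR-FRET emission ratio (665/620 nm, 337 nm excitation), normalized with no-inhibitor and no-enzyme controls. Incubation 45 min at 22 °C, pH 7.5 Tris buffer, with final 10 nM tracer, 1 nM Sf9-expressed GST-RIPK2 fragment (aa 1-310) and 0.5 nM Tb-labelled anti-GST.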

[2] = target: T2, binding of His-XIAP(BIR2)-avi fusion protein to GST-RIPK2 fusion protein (RIPK2/XIAP) (Homo sapiens, UniProt O43353); assay: RIPK2-XIAP binding competition PPI assay (TR-FRET); conditions: RIPK2/XIAP binding competition PPI assay; for Emax: Amax, read-out: PPI Amax bin; for IC50: read-out: PPI IC50 bin
T2 construct: made in house; host or cells: baculovirus infected Sf9 cells
T2 sequence (O43353 1-310 limits assumed): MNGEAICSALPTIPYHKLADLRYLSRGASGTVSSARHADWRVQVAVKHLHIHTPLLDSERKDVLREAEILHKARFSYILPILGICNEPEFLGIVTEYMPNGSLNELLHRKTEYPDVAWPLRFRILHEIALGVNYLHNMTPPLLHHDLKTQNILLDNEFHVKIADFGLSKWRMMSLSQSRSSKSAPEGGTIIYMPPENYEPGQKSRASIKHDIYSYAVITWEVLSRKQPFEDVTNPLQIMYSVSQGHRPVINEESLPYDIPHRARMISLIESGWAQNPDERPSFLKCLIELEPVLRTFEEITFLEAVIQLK
Method in brief: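 Compounds (in DMSO, 100-fold stock) incubated 120 min at 23 °C with 1 nM GST-RIPK2 (aa 1-310) and 25 nM His-XIAP(BIR2 aa 152-231)-avi, plus anti-His-XL665 and anti-GST-Tb, in pH 7.5 Tris buffer. Read-out: 665/520 nm emission ratio. Normalized to no-inhibitor (0%) and 50 nM GSK583 (−100%); Amax binned A–D.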

[3] = system: NF-κB pathway (SEAP) in THP1-Dual cells; assay: THP-1 Dual cell SEAP assay (L18-MDP stimulated); assay type: cell-based; conditions: Homo sapiens, THP1-Dual, read-out: NF-κB THP1 IC50 bin
Method in brief: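 IC50 values derive from non-linear regression of % inhibition, calculated against DMSO/L18-MDP-treated wells after media-only subtraction. NF-κB SEAP activity was read at OD 620-655 nm (QUANTI-Blue, 2 h, 37 °C) from supernatants of THP1-Dual cells. Cells had been compound-treated 30 min before overnight (20-24 h) stimulation with 10 ng/mL final L18-MDP.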

T1 sequence (O43353 1-310): as the sequence (O43353 1-310 limits assumed) above

| SMILES | IC50 [1] [µM] | Emax [2] [%] | IC50 [2] [µM] | IC50 [3] [µM] |
| --- | --- | --- | --- | --- |
| CC(C)(N)COc1cc2ncc(-c3cc(Cl)c(N)nc3F)n2cc1S(=O)(=O)C(C)(C)C [Example 241, 5-(7-(2-amino-2-methylpropoxy)-6-(tert-butylsulfonyl)imidazo [1,2-a]pyridin-3-yl)-3-chloro-6-fluoropyridin-2-amine] | 0.0025 to 0.02 | > 80 | 0.0025 to 0.02 | 0.25 to 1 |
| C[C@H](O)COc1cn2ncc(-c3cc(F)c(N)nc3F)c2cc1S(=O)(=O)C(C)(C)C [Example 45, (S)-1-((3-(6-amino-2,5-difluoropyridin-3-yl)-5-(tert-butylsulfonyl)pyrazolo[1,5-a]pyridin-6-yl)oxy)propan-2-ol] | 0.001 to 0.0025 | > 80 | 0.001 to 0.0025 | 0.05 to 0.25 |
| CC(C)(C)S(=O)(=O)c1cc2c(-c3cc(F)c(N)nc3F)cnn2cc1OCCOP(=O)(O)O [Example 188, 2-((3-(6-amino-2,5-difluoropyridin-3-yl)-5-(tert-butylsulfonyl)pyrazolo[1,5-a]pyridin-6-yl)oxy)ethyl dihydrogen phosphate] | > 0.02 | > 80 | > 0.02 | > 1 |
